In PMC7031696 (Cell chemical biology, 2019):
≈ marks a conversion by molar mass, not a printed value. Like-named read-outs stand apart in the source and are kept apart here.

What was measured:
[1] = tested on: 3D7-MR4 trophozoite parasite-infected RBCs; assay: Metabolomic profiling (hydrophilic metabolite changes, UHPLC-MS); format: cell-based, Plasmodium falciparum
[2] = tested on: Plasmodium falciparum 3D7-A10 parasites; assay: Stage specificity assay (8-h exposure of synchronized stages, IC50^8h); format: cell-based; details: for IC50: Plasmodium falciparum
[3] = tested on: asynchronous 3D7-A10 parasite cultures; assay: Standard 72-h exposure asexual blood stage susceptibility assay (IC50^72h); format: cell-based, Plasmodium falciparum; details: Plasmodium falciparum, 3D7, 72 h, read-out: Overall (72hr assay) Mean IC50 (IC50^72h)
[4] = 1.5 h, 500 μM, pH 7.4

## Cc1cc(Nc2ccc(OCc3ccccc3)cc2)nc2cc(O)ccc12 [MMV007181]
[1]; 10 × IC50^72h, 2.5 hr, trophozoites
  peptide levels (hemoglobin catabolism signature): decreased peptide levels
[1]; metabolite 3-phosphoglycerate, log2 fold change
  Log2(fold changes) 3-phosphoglycerate: -0.1714
[1]; metabolite 4-Pyridoxic acid, log2 fold change
  Log2(fold changes) 4-Pyridoxic acid: -0.2247
[1]; metabolite 4-aminobutyrate, log2 fold change
  Log2(fold changes) 4-aminobutyrate: -0.0986
[1]; metabolite 4-phosphopantetheine, log2 fold change
  Log2(fold changes) 4-phosphopantetheine: 0.6961
[1]; metabolite 4-phosphopantothenate, log2 fold change
  Log2(fold changes) 4-phosphopantothenate: -0.6638
[1]; metabolite 5-aminopentanoic acid, log2 fold change
  Log2(fold changes) 5-aminopentanoic acid: -0.2294
[1]; metabolite 5-methyl-THF, log2 fold change
  Log2(fold changes) 5-methyl-THF: 0.0000
[1]; metabolite 5-phosphoribosyl-1-pyrophosphate, log2 fold change
  Log2(fold changes) 5-phosphoribosyl-1-pyrophosphate: 0.0000
[1]; metabolite 6-phospho-D-gluconate, log2 fold change
  Log2(fold changes) 6-phospho-D-gluconate: -0.1453
[1]; metabolite HVDD
  Log2(fold change) HVDD: -4.4739
[1]; metabolite Hydroxyisocaproic acid
  Log2(fold change) Hydroxyisocaproic acid: 0.0000
[1]; metabolite IDP
  Log2(fold change) IDP: -0.0045
[1]; metabolite IMP
  Log2(fold change) IMP: -0.1201
[1]; metabolite Inositol
  Log2(fold change) Inositol: 0.0000
[1]; metabolite Isopentyl-PP
  Log2(fold change) Isopentyl-PP: -0.4346
[1]; metabolite L-arginino-succinate
  Log2(fold change) L-arginino-succinate: -0.6665
[1]; metabolite LD
  Log2(fold change) LD: -0.1484
[1]; metabolite Myristoyl/tetradecanoyl-CoA
  Log2(fold change) Myristoyl/tetradecanoyl-CoA: 0.0000
[1]; metabolite N-Acetyl-L-alanine
  Log2(fold change) N-Acetyl-L-alanine: -0.3632
[1]; metabolite N-acetyl-L-ornithine
  Log2(fold change) N-acetyl-L-ornithine: -2.0310
[1]; metabolite N-acetyl-glucosamine-1/6-phosphate
  Log2(fold change) N-acetyl-glucosamine-1/6-phosphate: -0.0060
[1]; metabolite N-acetyl-glutamate
  Log2(fold change) N-acetyl-glutamate: 0.1987
[1]; metabolite N-acetyl-glutamine
  Log2(fold change) N-acetyl-glutamine: 0.1663
[1]; metabolite N-carbamoyl-L-aspartate
  Log2(fold change) N-carbamoyl-L-aspartate: -0.1286
[1]; metabolite NAD+
  Log2(fold change) NAD+: -0.1335
[1]; metabolite NADH
  Log2(fold change) NADH: 2.9716
[1]; metabolite NADP+
  Log2(fold change) NADP+: -0.2177
[1]; metabolite NADPH
  Log2(fold change) NADPH: 2.7260
[1]; metabolite O-acetyl-L-serine
  Log2(fold change) O-acetyl-L-serine: -0.0650
[1]; metabolite Octoluse 8/1P
  Log2(fold change) Octoluse 8/1P: -0.2583
[1]; metabolite Octoluse Bisphosphate
  Log2(fold change) Octoluse Bisphosphate: -0.7020
[1]; metabolite PD
  Log2(fold change) PD: -3.3017
[1]; metabolite PE
  Log2(fold change) PE: -2.9801
[1]; metabolite PEE
  Log2(fold change) PEE: -2.9268
[1]; metabolite PEEK
  Log2(fold change) PEEK: -4.7351
[1]; metabolite PVNF
  Log2(fold change) PVNF: -4.5493
[1]; metabolite Pyroglutamic acid
  Log2(fold change) Pyroglutamic acid: 0.2482
[1]; metabolite Pyrophosphate
  Log2(fold change) Pyrophosphate: 0.0000
[1]; metabolite Ribose-5-phosphate
  Log2(fold change) Ribose-5-phosphate: -0.4059
[1]; metabolite S-adenosyl-L-homocysteine
  Log2(fold change) S-adenosyl-L-homocysteine: -0.1192
[1]; metabolite S-adenosyl-L-methioninamine
  Log2(fold change) S-adenosyl-L-methioninamine: -3.2130
[1]; metabolite S-adenosyl-L-methionine
  Log2(fold change) S-adenosyl-L-methionine: -0.1206
[1]; metabolite S-methyl-5'-thioadenosine
  Log2(fold change) S-methyl-5'-thioadenosine: 0.4702
[1]; metabolite SD
  Log2(fold change) SD: -0.6167
[1]; metabolite SDL
  Log2(fold change) SDL: 0.0000
[1]; metabolite SID
  Log2(fold change) SID: -0.9911
[1]; metabolite Sedoheptulose bisphosphate
  Log2(fold change) Sedoheptulose bisphosphate: -0.4907
[1]; metabolite Thiamine pyrophosphate
  Log2(fold change) Thiamine pyrophosphate: -0.0717
[1]; metabolite UDP-D-glucose, log2 fold change
  Log2(fold changes) UDP-D-glucose: 0.0982
[1]; metabolite UDP-D-glucuronate, log2 fold change
  Log2(fold changes) UDP-D-glucuronate: -0.0548
[1]; metabolite UDP-N-acetyl-glucosamine, log2 fold change
  Log2(fold changes) UDP-N-acetyl-glucosamine: -0.0365
[1]; metabolite UDP, log2 fold change
  Log2(fold changes) UDP: -0.2952
[1]; metabolite UMP, log2 fold change
  Log2(fold changes) UMP: -0.1123
[1]; metabolite UTP, log2 fold change
  Log2(fold changes) UTP: -0.0747
[1]; metabolite hydroxyphenylpyruvate
  Log2(fold change) hydroxyphenylpyruvate: 0.0000
[1]; metabolite hydroxyproline/Aminolevulinate
  Log2(fold change) hydroxyproline/Aminolevulinate: -0.1078
[1]; metabolite hypoxanthine
  Log2(fold change) hypoxanthine: 0.1087
[1]; metabolite indole
  Log2(fold change) indole: -0.0870
[1]; metabolite inosine
  Log2(fold change) inosine: -0.1121
[1]; metabolite isoleucine
  Log2(fold change) isoleucine: 0.0000
[1]; metabolite lactate
  Log2(fold change) lactate: -0.3282
[1]; metabolite leucine
  Log2(fold change) leucine: -0.3120
[1]; metabolite lysine
  Log2(fold change) lysine: -2.3197
[1]; metabolite malate
  Log2(fold change) malate: -0.7445
[1]; metabolite maleic acid
  Log2(fold change) maleic acid: -0.7914
[1]; metabolite methionine
  Log2(fold change) methionine: 0.1152
[1]; metabolite myo-inositol
  Log2(fold change) myo-inositol: -0.3555
[1]; metabolite nicotinamide mononucleotide
  Log2(fold change) nicotinamide mononucleotide: -0.2883
[1]; metabolite nicotinate
  Log2(fold change) nicotinate: 0.1126
[1]; metabolite ornithine
  Log2(fold change) ornithine: -0.1929
[1]; metabolite orotate
  Log2(fold change) orotate: -0.4250
[1]; metabolite orotidine-5'-phosphate
  Log2(fold change) orotidine-5'-phosphate: -1.5378
[1]; metabolite oxaloacetate
  Log2(fold change) oxaloacetate: -0.5706
[1]; metabolite p-aminobenzoate
  Log2(fold change) p-aminobenzoate: 0.0000
[1]; metabolite p-hydroxybenzoate
  Log2(fold change) p-hydroxybenzoate: 0.0981
[1]; metabolite pantothenate
  Log2(fold change) pantothenate: 0.1598
[1]; metabolite phenylalanine
  Log2(fold change) phenylalanine: -0.4038
[1]; metabolite phenylpyruvate
  Log2(fold change) phenylpyruvate: 0.0000
[1]; metabolite phosphoenolpyruvate
  Log2(fold change) phosphoenolpyruvate: 0.0294
[1]; metabolite prephenate
  Log2(fold change) prephenate: -0.1912
[1]; metabolite proline
  Log2(fold change) proline: -0.4365
[1]; metabolite pyridoxine
  Log2(fold change) pyridoxine: -0.1437
[1]; metabolite pyruvate
  Log2(fold change) pyruvate: -0.7096
[1]; metabolite riboflavin
  Log2(fold change) riboflavin: 0.3011
[1]; metabolite ribose
  Log2(fold change) ribose: -0.0087
[1]; metabolite ribose-phosphate
  Log2(fold change) ribose-phosphate: -0.7988
[1]; metabolite ribulose-5-phosphate
  Log2(fold change) ribulose-5-phosphate: -0.4319
[1]; metabolite serine
  Log2(fold change) serine: -0.2012
[1]; metabolite sn-glycerol-3-phosphate
  Log2(fold change) sn-glycerol-3-phosphate: 0.0673
[1]; metabolite succinate/Methylmalonic acid
  Log2(fold change) succinate/Methylmalonic acid: -0.1908
[1]; metabolite succinyl-CoA/methylmalonyl-CoA
  Log2(fold change) succinyl-CoA/methylmalonyl-CoA: 0.0000
[1]; metabolite taurine
  Log2(fold change) taurine: 0.0434
[1]; metabolite thiamine
  Log2(fold change) thiamine: -0.2929
[1]; metabolite threonine/homoserine
  Log2(fold change) threonine/homoserine: -0.5619
[1]; metabolite thymidine
  Log2(fold change) thymidine: 0.0000
[1]; metabolite thymine, log2 fold change
  Log2(fold changes) thymine: 0.0000
[1]; metabolite trehalose-6-Phosphate, log2 fold change
  Log2(fold changes) trehalose-6-Phosphate: 0.0000
[1]; metabolite tryptophan, log2 fold change
  Log2(fold changes) tryptophan: -0.4056
[1]; metabolite tyrosine, log2 fold change
  Log2(fold changes) tyrosine: -0.2656
[1]; metabolite uridine, log2 fold change
  Log2(fold changes) uridine: 0.0000
[2]; 3D7-A10
  Ratio lowest IC50 8hr/IC50 72hr: 3.0
[2]; 8-h exposures, survival curves
  killing in stage specificity assay: incomplete killing at all asexual blood stages
[2]; 3D7, read-out: Early rings IC50 (IC50^8h), 8-h exposure 0–8 hr, bound given in μM
  IC50: > 25 µM
[2]; 3D7, read-out: Early trophozoites Mean IC50 (IC50^8h), 8-h exposure 16–24 hr, 3D7-A10, survival at 60 h
  IC50: 0.253 µM
[2]; 3D7, read-out: Late rings IC50 (IC50^8h), 8-h exposure 8–16 hr, bound given in μM
  IC50: > 25 µM
[2]; 3D7, read-out: Late trophozoites Mean IC50 (IC50^8h), 8-h exposure 24–32 hr, 3D7-A10, survival at 60 h
  IC50: 0.274 µM
[2]; 3D7, read-out: Schizonts Mean IC50 (IC50^8h), 8-h exposure 32–40 hr, 3D7-A10, survival at 60 h
  IC50: 0.57 µM
[2]; period when the parasite was most susceptible (lowest IC50^8h)
  Stage of peak activity (Figure 6): trophozoites
[2]; stage(s) with the lowest IC50^8h
  Peak Activity (Table S1): Trophs
physchem; pH 7.4
  solubility at 1.5 h: > 100 µM
physchem; pH 7.4, aqueous buffer, kinetic from dmso stock
  solubility at 1.5 h: 100 to 500 µM (≈ 35.6 to 178 µg/mL)
[3]
  IC50: 84.9 nM
[4]
  Ratio fil./std. (absorbance filtrate/standard): 0.69
